Assay results published in PMC12073438, “Stereoselectivity of In Vivo Processes and Bioactivity of Farrerol Enantiomers” (Molecules, 2025).

Legend:
CYP2A6 = target: T1, CYP2A6 (Homo sapiens, UniProt P11509); assay: CYP inhibition in liver microsomes (coumarin); settings: CYP 2A6; marker substrate coumarin; liver microsomes
T1 sequence (P11509 1-494): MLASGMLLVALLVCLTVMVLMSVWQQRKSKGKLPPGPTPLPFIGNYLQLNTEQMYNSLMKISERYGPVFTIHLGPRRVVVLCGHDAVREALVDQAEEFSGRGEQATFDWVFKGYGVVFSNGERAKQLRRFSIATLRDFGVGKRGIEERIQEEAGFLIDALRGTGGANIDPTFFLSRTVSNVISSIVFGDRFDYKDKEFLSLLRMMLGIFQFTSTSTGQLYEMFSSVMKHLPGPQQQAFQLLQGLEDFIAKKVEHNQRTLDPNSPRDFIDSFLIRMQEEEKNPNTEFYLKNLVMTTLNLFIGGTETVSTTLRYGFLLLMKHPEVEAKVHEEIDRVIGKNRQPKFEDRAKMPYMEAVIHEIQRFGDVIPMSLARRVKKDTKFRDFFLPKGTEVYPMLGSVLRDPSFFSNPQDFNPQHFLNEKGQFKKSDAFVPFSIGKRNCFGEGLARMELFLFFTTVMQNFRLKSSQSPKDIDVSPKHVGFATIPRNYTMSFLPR
Method: (§1) A liver microsome working solution (20 mg/mL) contained potassium phosphate buffer (0.1 M, pH 7.4), hepatic microsomes and marker substrate solution, which phenacetin, diclofenic acid, S-mephenytoinwer, dextromethorphan, midazolam, coumarin and chlorzoxazone used as substrates for […], CYP2C9, CYP2C19, CYP2D6, CYP3A4/5, CYP2A6 and CYP2E1, respectively. In brief, 238.5 µL of liver microsome working solution was placed in a 1 mL EP tube. […] The reaction was started by injecting NADPH (1 mM), and the resulting mixture was incubated at 37 °C for 10 min. After centrifuging at 4000 rpm for 15 min, the supernatant was transferred and analyzed using LC-MS/MS to detect the corresponding metabolites. Each incubation was conducted in triplicate (n = 3).
(§2) An API 4000 LC/tandem mass spectrometry was used to analyze the concentration of metabolites of various chemical agents using a validated mode. An Atlantis T3 column (2.1 mm × 50 mm, 5 μm) was utilized, employing mobile phases consisting of a 0.1% formic acid solution (A) and a 0.1% acetonitrile formate solution (B). […] As for the detection of CYP 2E1 metabolite, the Flow composition was as follows: 0–0.30 min, 10% B; 0.30–1.30 min, 10–55% B; 1.30–1.50 min, 55–95% B; 1.50–2.00 min, 95% B; 2.00–2.01 min, 95–10% B; the low rate was 0.85 mL/min. ESI was conducted in positive ion mode. MRM was utilized to quantify each metabolite, detecting the following transitions: m/z 152.1/110 for acetaminophen, 312.1/230.0 for 4′-Hydroxydiclofenac, 235.0/150.0 for 4′-hydroxymephentoin, 258.2/199.1 for Dextrorphan, 342.1/203.0 for 1′-hydroxymidazolam, 161.1/133.1 for hydroxycoumarin, and 184.0/120.0 for 6-hydroxyclozoxadone.

[1] = Stereoselective pharmacokinetics in rat plasma; type: in vivo, Sprague–Dawley rats
Method: The pharmacokinetic data were optimally characterized by a noncompartmental model. The mean concentration-time profiles for the farrerol enantiomers are illustrated in Figure 3, along with the corresponding key pharmacokinetic parameters presented in Table 2.
Twenty-five rats were randomly divided into five experimental groups (A, B, C, D, and E). Groups A and B received farrerol racemate via intragastric administration at doses of 150 mg/kg and 75 mg/kg, respectively. Group C was administered 4 mg/kg of farrerol racemate through caudal intravenous administration. […] Blood samples (300 μL) were obtained from the orbital venous plexus into heparinized tubes at various time points: 0.25, 0.5, 1, 2, 3, 5, 7, 9, 12, and 24 h following gavage administration, and at 0.083, 0.167, 0.25, 0.5, 1, 1.5, 2, 2.5, 3, and 5 h post-intravenous administration. Plasma was separated by centrifugation (3000 rpm, 10 min) and stored at −80 °C until analysis.
A total of 150 μL of plasma and 50 μL of the internal standard solution were added to a 1.5 mL EP tube and mixed using a vortex for 30 s. Subsequently, 500 μL of ether was introduced, and the mixture was vortexed for 5 min. Following centrifugation at 10,000 rpm for 10 min, the resulting organic layer was carefully transferred to a separate tube. Each sample underwent two extraction processes. The resulting ether layer was then evaporated to dryness using a continuous air stream at room temperature. A 250 μL aliquot of methanol was employed to re-dissolve the residue, utilizing vortex mixing for 2 min. Following centrifugation at 14,000 rpm for 10 min, the supernatant was subsequently injected into the HPLC-MS system for analysis.
(§3) Stereoselective chromatographic analysis of farrerol enantiomers was conducted utilizing an ACQUITY UPLC I-Class UPLC system (Waters, Milford, MA, USA), which is equipped with a quaternary pump and an autosampler. The chiral separation was carried out employing a Chiralpak OJ-RH column (250 mm × 4.6 mm, 5 μm), which was obtained from Daicel Chemical Industries (Shanghai, China). The mobile phase consisted of ACN-H2O (60:40, v/v), and the constant flow rate was 0.5 mL/min. The column temperature was set at 25 °C, and the injection volume was 10 μL.
(§4) Mass detection was conducted using a triple quadrupole mass spectrometer (Waters Co., USA) equipped with an electrospray ionization (ESI) source. The detection of enantiomers and internal standards (IS) was carried out in multiple reaction monitoring (MRM) mode utilizing negative ionization. The m/z 299→179 for enantiomers and m/z 267→252 for IS were selected as detecting ions for quantitation. The collision energies (CE) were established at 22 eV and 20 eV, respectively. The primary mass spectrometry (MS) parameters were configured as follows: capillary voltage was set to 3.5 kV, ion source temperature was maintained at 150 °C, desolvation gas flow rate was 800 L/h, and the cone voltage (CV) was adjusted to 1.3 V.
(§5) Pharmacokinetic analysis was conducted utilizing the Drug and Statistics (DAS) 2.0 software provided by the Chinese Pharmacological Society. To assess the differences in pharmacokinetic parameters, the IC50 values of the evaluated CYP enzymes and the permeability coefficients between the two farrerol enantiomers, paired sample t-tests and independent sample t-tests were performed. Statistical significance was defined as * p < 0.05 and ** p < 0.01. All results are presented as mean values ± standard deviation (SD).

[2] = Stereoselective pharmacokinetics in rat kidney tissue; type: in vivo, Sprague–Dawley rats; settings: rat kidney tissue; i.g. 40 mg/kg racemate, within 24 h
Method: (§6) Forty-two rats were divided randomly into seven groups (6 rats per time point at 0.5, 1, 2, 4, 8, 12, and 24 h) and were orally administered farrerol racemate at a dose of 40 mg/kg. Rats from each group were euthanized, and kidney and liver tissues were subsequently obtained. After washing three times using 0.9% sodium chloride solution, the attached blood and fat tissues were removed. Afterward, 0.5 g of the precisely weighed liver and kidney tissues were added to 1 mL 0.9% sodium chloride solution and homogenized in an ice bath. Subsequently, 150 µL of supernatant was transferred into a 2.0 mL EP tube for pre-treatment, in the same way as the pretreatment of plasma samples (see Section 3.4.1).
as §3, §4, §5

[3] = Stereoselective pharmacokinetics in rat liver tissue; type: in vivo, Sprague–Dawley rats; settings: rat liver tissue; i.g. 40 mg/kg racemate, within 24 h
Method: as §6, §3, §4, §5

CYP3A4/5 = assay: CYP inhibition in liver microsomes (midazolam); settings: human, microsomes, pH 7.4
Method: as §1, §2

CYP2C9 = CYP2C9 (Homo sapiens, UniProt P11712); assay: CYP inhibition in liver microsomes (diclofenac); settings: CYP 2C9, marker substrate diclofenac
Method: as §1, with “After centrifuging at 4000 rpm for 15 min, the supernatant was transferred and analyzed using LC-MS/MS to detect the corresponding metabolites.” left out
An API 4000 LC/tandem mass spectrometry was used to analyze the concentration of metabolites of various chemical agents using a validated mode. An Atlantis T3 column (2.1 mm × 50 mm, 5 μm) was utilized, employing mobile phases consisting of a 0.1% formic acid solution (A) and a 0.1% acetonitrile formate solution (B). […] ESI was conducted in positive ion mode.

CYP1A2 = target: T2, CYP1A2 (Homo sapiens, UniProt P05177); assay: CYP inhibition in liver microsomes (phenacetin); settings: CYP 1A2, marker substrate phenacetin
T2 sequence (P05177 1-516): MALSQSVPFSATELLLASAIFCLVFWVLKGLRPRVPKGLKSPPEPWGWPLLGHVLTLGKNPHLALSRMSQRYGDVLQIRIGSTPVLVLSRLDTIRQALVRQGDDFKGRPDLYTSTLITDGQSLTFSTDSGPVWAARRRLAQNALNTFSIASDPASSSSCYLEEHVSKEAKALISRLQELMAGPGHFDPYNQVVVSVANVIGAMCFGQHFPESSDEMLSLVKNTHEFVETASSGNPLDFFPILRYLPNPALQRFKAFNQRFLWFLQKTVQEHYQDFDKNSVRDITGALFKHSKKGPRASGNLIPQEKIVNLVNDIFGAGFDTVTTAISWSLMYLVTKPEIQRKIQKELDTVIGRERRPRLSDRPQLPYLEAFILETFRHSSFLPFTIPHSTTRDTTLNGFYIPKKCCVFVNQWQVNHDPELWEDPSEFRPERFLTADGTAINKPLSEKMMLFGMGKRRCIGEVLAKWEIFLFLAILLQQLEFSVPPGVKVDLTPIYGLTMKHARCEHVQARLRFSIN
Method: as §1, §2

CYP2C9, sequence (P11712 whole entry): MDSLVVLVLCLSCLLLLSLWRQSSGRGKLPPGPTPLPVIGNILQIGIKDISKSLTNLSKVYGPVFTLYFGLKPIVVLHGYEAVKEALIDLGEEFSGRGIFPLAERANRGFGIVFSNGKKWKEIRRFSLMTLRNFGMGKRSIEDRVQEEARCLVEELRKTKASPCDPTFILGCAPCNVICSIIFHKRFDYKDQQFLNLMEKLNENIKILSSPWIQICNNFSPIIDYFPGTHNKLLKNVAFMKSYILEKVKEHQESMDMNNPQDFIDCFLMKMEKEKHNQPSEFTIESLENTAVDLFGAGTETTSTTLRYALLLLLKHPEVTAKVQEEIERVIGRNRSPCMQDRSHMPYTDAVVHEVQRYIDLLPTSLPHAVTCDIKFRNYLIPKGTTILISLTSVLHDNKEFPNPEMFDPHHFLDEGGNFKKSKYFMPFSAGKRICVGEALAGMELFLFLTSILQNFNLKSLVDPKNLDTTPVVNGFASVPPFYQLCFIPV

`N[C@@H]1C[C@H]1c1ccccc1` (racemic) [Tranylcypromine, reference compound] gave an IC50 (CYP2A6) of 383 nM.
In the case of `Cc1c(O)c(C)c2c(c1O)C(=O)CC(c1ccc(O)cc1)O2` (racemic) [racemic farrerol, 2,3-dihydro-5,7-dihydroxy-2-(4-hydroxyphenyl)-6,8-dimethyl-4-benzopyrone], the “enantiomeric fraction (EF) = E(+)/(E(+)+E(−))” value (“enantiomeric fraction” for short) ([1]; intravenous administration of racemate) is reported as “around 0.7”, the “enantiomeric fraction” value ([1]; oral administration of racemate (all doses)) is reported as “greater than 0.6” and the “enantiomeric fraction” value ([1]; oral dose of 75 mg/kg, approximately 1.5 to 24 h) is reported as “around 0.8”. The “enantiomeric fraction” value [2] was “less than 0.5” and the “enantiomeric fraction” value [3] was “less than 0.5”.
Work on `CC(=O)N1CCN(c2ccc(OCC3COC(Cn4ccnc4)(c4ccc(Cl)cc4Cl)O3)cc2)CC1` (stereo not drawn) [ketoconazole, reference compound] yielded an IC50 at 10 min (CYP3A4/5) of 10.4 nM.
`Nc1ccc(S(=O)(=O)Nc2ccnn2-c2ccccc2)cc1` [sulfaphenazole, reference compound] gave an IC50 (CYP2C9) of 219 nM.
With `O=c1cc(-c2ccccc2)oc2ccc3ccccc3c12` [β-naphthoflavone, reference compound] the IC50 (CYP1A2) was 129 nM.
